The target of experiment [1] is T1, Integrin alpha-IIb/beta-3 (Homo sapiens, UniProt P05106+P08514). In words: Affinity for purified human platelet glycoprotein alpha IIb beta3 integrin receptor in ELISA. Background: An ELISA detects its analyte on a solid surface through an enzyme-linked reagent.
Experiment [2] has as its target T1, Integrin alpha-IIb/beta-3. The experiment can be described thus: Inhibition of fibrinogen (Fg) interaction with GPIIb/IIIa in gel filtered platelets. The experiment is classed as functional.
Experiment [3] can be described thus: Inhibition of platelet aggregation in citreated human platelet rich plasma (PRP).

The results in this text go back to ChEMBL document CHEMBL1132008, “Isoxazoline GPIIb/IIIa antagonists bearing a phosphoramidate” (Bioorg Med Chem Lett, 1999).

T1 sequence (P05106 27-788 limits assumed): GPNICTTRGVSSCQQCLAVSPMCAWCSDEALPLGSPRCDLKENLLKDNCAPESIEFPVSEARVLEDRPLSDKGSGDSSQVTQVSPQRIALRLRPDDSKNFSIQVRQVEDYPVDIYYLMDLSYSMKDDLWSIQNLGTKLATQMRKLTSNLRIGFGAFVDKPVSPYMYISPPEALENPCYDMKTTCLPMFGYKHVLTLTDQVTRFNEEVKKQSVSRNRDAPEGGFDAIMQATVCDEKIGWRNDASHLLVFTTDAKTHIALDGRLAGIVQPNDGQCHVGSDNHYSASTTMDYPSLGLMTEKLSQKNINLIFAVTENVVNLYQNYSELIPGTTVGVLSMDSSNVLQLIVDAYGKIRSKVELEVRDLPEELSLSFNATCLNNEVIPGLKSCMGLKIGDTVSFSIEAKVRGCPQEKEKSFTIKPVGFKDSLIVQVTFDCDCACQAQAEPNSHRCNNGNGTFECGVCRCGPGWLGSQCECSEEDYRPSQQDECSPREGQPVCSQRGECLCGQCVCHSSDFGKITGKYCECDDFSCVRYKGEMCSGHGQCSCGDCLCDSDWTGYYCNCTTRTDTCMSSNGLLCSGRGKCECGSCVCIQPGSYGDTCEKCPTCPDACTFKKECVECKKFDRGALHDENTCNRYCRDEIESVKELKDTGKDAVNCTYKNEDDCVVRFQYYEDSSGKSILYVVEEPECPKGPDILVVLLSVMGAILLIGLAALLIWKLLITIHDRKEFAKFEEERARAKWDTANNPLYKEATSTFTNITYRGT
T1 sequence (P08514 32-887 limits assumed): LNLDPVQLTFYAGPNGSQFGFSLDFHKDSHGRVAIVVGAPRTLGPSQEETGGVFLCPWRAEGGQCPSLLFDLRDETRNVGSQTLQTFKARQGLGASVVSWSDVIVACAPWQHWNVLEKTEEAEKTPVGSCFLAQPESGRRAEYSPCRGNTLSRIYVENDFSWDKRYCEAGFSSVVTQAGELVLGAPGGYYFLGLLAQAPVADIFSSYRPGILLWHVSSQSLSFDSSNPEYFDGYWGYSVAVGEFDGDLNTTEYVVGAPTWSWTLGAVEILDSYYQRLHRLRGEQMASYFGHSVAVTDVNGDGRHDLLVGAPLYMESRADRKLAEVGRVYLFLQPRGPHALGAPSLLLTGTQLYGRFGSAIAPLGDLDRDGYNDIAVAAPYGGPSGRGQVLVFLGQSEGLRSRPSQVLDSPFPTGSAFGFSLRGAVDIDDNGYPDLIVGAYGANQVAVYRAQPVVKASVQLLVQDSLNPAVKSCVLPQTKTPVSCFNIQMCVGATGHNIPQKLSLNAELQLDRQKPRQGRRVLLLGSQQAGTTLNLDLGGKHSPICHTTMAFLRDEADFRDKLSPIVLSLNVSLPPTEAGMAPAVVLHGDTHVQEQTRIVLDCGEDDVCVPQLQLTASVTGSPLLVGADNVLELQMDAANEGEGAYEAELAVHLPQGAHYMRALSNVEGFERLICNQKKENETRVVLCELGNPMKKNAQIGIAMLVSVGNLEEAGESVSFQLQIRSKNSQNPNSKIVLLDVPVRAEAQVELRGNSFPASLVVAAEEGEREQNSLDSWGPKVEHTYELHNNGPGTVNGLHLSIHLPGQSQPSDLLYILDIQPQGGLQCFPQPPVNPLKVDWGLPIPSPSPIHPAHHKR
T1 sequence (P08514 891-1039 limits assumed): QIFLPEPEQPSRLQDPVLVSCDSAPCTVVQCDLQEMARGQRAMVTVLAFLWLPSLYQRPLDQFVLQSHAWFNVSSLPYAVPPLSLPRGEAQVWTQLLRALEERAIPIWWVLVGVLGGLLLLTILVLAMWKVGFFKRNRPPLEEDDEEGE

For the compound `N=C(N)c1ccc(C2=NOC(CC(=O)NCC(NP(=O)(O)O)C(=O)O)C2)cc1` (stereo not given), the IC50 in experiment [1] stood at 0.0026 µM; in experiment [2] it was 0.229 µM.

For `N=C(N)c1ccc(C2=NOC(CC(=O)NCCC(=O)O)C2)cc1` (stereo not given), half-maximal inhibition in experiment [2] (IC50) was put at 0.14 µM.

With `CCCCOP(=O)(NC(CNC(=O)CC1CC(c2ccc(C(=N)N)cc2)=NO1)C(=O)O)OCCCC` (stereo not given), the IC50 in experiment [1] was determined as 0.0012 µM; in experiment [2], 0.055 µM.

For the compound `CC(C)OP(=O)(NC(CNC(=O)CC1CC(c2ccc(C(=N)N)cc2)=NO1)C(=O)O)OC(C)C` (stereo not given), the figures for the half-inhibitory concentration (IC50) in experiment [1] and in experiment [2] were 0.00086 µM and 0.073 µM, respectively.

Regarding `COP(=O)(NC(CNC(=O)CC1CC(c2ccc(C(=N)N)cc2)=NO1)C(=O)O)OC` (stereo not given), the results for the 50% inhibitory concentration (IC50) in experiment [1] and in experiment [2] were 0.00055 µM and 0.054 µM, respectively.

In the case of `CCCCOC(=O)N[C@@H](CNC(=O)C[C@H]1CC(c2ccc(C(=N)N)cc2)=NO1)C(=O)O`, the figures for the IC50 in experiment [2] and in experiment [3] were 0.021 µM and 0.05 µM, respectively.

Consider `CCOP(=O)(NC(CNC(=O)CC1CC(c2ccc(C(=N)N)cc2)=NO1)C(=O)O)OCC` (stereo not given), for which the results for the IC50 in experiment [1] and in experiment [2] were 0.0017 µM and 0.102 µM, respectively.

On to `C=CCOP(=O)(NC(CNC(=O)CC1CC(c2ccc(C(=N)N)cc2)=NO1)C(=O)O)OCC=C` (stereo not given), for which the half-inhibitory concentration (IC50) is 0.0015 µM in experiment [1] and 0.046 µM in experiment [2].

Usually IC50 stands for the concentration that gives 50% inhibition. A high value points to weaker potency.
